Assay results taken from BindingDB's records for doi:10.1002/1439-7633(20021004)3:10 (Aventis Pharmaceuticals, 2002).
Values joined by “and” are separate entries in the source; they are usually repeats but may differ in a detail not shown here. Equal values may be shown once.

target: T1, Alpha-1B adrenergic receptor (Rattus norvegicus, UniProt P15823); assay: Binding Assay
T1 sequence (P15823 whole entry): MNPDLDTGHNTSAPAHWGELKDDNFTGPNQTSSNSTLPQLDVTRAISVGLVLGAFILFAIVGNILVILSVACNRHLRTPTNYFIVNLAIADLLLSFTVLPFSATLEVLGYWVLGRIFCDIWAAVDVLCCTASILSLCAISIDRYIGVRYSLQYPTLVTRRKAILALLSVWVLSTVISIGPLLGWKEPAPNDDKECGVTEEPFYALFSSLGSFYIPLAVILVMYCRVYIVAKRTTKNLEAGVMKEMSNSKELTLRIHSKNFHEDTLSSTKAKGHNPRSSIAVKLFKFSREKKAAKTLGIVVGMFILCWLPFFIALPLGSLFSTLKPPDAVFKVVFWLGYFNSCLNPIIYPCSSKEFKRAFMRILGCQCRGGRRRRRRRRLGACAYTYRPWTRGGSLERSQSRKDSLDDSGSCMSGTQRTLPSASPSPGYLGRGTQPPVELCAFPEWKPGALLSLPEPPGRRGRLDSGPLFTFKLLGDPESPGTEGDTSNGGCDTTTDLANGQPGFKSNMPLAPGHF
Procedure: All rat alpha-1 adrenoceptor binding was performed by Hugo M. vargas, Karen M. Brooks and Lynn Laws-Ricker.

Structure (SMILES)	Ki
OCC(CN1Cc2ccccc2C1)N1CCC(c2noc3cc(F)ccc23)CC1 (stereo not given) [Isoindoline, 9]	43 nM and 54.5 nM and 225 nM
OCC(CN1Cc2ccc(F)cc2C1)N1CCC(c2noc3cc(F)ccc23)CC1 (stereo not given) [Isoindoline, 11]	92.5 nM
OCC(CN1Cc2cccc(F)c2C1)N1CCC(c2noc3cc(F)ccc23)CC1 (stereo not given) [Isoindoline, 12]	232 nM
OCC(CN1Cc2ccc(C(F)(F)F)cc2C1)N1CCC(c2noc3cc(F)ccc23)CC1 (stereo not given) [Isoindoline, 17]	26 nM
COc1ccc2c(c1)CN(CC(CO)N1CCC(c3noc4cc(F)ccc34)CC1)C2 (stereo not given) [Isoindoline, 19]	20 nM
OCC(CN1CCc2ccccc2C1)N1CCC(c2noc3cc(F)ccc23)CC1 (stereo not given) [Isoindoline, 26]	19 nM

The remaining lines, values ahead:

Ki	Structure (SMILES)
11.9 nM	OCC(CN1Cc2ccc(Cl)cc2C1)N1CCC(c2noc3cc(F)ccc23)CC1 (stereo not given) [Isoindoline, 13]
12.4 nM	Cc1cccc2c1CN(CC(CO)N1CCC(c3noc4cc(F)ccc34)CC1)C2 (stereo not given) [Isoindoline, 16]
17.5 nM	COc1cccc2c1CN(CC(CO)N1CCC(c3noc4cc(F)ccc34)CC1)C2 (stereo not given) [Isoindoline, 20]
4.1 nM	O=C1c2ccccc2CN1CC(CO)N1CCC(c2noc3cc(F)ccc23)CC1 (stereo not given) [Isoindoline, 23]
